From the NIST ThermoML archive (doi:10.1016/j.jct.2016.02.006)
± gives the expanded uncertainty stated by the source.

Tests used:
[1] = refractive index (Na D-line) (dimensionless); conditions: 293.15 K; 101.33 kPa; Liquid; Standard Abbe refractometry
[2] = Crystal; DTA
[3] = Molar enthalpy of transition or fusion; conditions: Crystal; DSC

refractive index [1]	Normal melting temperature [2] [°C]	Molar enthalpy of transition or fusion [3] [kcal/mol]	Structure (SMILES)
1.4098 ± 0.0004	–	–	CCCCCO [pentan-1-ol]
1.4346 ± 0.0004	–	–	CCCCCCCCCCCCCCCC [hexadecane]
1.469 ± 0.0004	–	–	CN1CCCC1=O [N-methylpyrrolidone]
1.3439 ± 0.0004	–	–	CC#N [acetonitrile]
1.3978 ± 0.0004	–	–	CCCCCCCC [octane]
1.4849 ± 0.0004	–	–	O=CN1CCOCC1 [N-formylmorpholine]
1.3329 ± 0.0004	–	–	O [water]
1.4542 ± 0.0004	–	–	NCCO [2-aminoethan-1-ol]
1.4334 ± 0.0004	–	–	CCCCCCCCCO [nonan-1-ol]
–	255.0 ± 0.4	13.2 ± 0.359	C=C(C)[C@@H]1CC[C@]2(CO)CC[C@]3(C)[C@H](CC[C@@H]4[C@@]5(C)CC[C@H](O)C(C)(C)[C@@H]5CC[C@]43C)[C@@H]12 [betulin]
1.4291 ± 0.0004	–	–	CCCCCCCCO [octan-1-ol]
1.4218 ± 0.0004	–	–	CCCCCCCCCCCC [dodecane]
1.3983 ± 0.0004	–	–	CCC(C)O (stereo not given) [butan-2-ol]
1.4304 ± 0.0004	–	–	CN(C)C=O [dimethylformamide]
